Test results published in US20240327430A1 (Breakpoint Therapeutics GmbH, priority 2023, published 2024).

What follows are compounds tested against truncated Polθ protein (Polθ-Hel containing the helicase domain (67-894)) (Homo sapiens (Human), UniProt O75417) (assay: Polθ ATPase assay (Biological Assay 1, ADP-Glo luminescence)). Details: Polθ-Hel 0.5 nM, DNA substrate 500 nM, ATP 60 μM, 23° C.; read-out: Pole ATPase assay IC50.
Sequence of truncated Polθ protein (Polθ-Hel containing the helicase domain (67-894)) (O75417 67-894): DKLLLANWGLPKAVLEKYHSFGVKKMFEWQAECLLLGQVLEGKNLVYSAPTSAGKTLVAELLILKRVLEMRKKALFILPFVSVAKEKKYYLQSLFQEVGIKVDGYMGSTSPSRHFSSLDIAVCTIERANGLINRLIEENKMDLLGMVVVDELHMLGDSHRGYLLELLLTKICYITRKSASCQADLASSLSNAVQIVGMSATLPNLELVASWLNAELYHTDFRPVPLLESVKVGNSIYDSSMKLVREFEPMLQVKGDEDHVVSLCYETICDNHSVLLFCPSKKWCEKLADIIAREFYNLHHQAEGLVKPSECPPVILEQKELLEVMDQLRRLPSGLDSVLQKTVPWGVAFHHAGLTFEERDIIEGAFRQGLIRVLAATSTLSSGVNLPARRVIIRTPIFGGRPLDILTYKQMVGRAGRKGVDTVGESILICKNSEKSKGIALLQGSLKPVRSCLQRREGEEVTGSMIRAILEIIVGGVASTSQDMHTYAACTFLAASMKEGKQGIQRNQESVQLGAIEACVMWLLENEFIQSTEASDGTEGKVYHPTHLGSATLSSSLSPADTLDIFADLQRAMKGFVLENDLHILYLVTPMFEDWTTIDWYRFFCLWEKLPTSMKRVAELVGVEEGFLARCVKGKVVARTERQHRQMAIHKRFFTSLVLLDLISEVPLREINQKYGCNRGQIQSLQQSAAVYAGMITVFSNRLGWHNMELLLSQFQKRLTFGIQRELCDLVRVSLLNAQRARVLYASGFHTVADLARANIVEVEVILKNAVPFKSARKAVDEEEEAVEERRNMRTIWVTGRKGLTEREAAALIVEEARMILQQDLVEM
Assay type: biochemical
Experimental: The Polθ ATPase assay was used to evaluate inhibitors of Polθ ATPase activity, in vitro. Experiments were performed using a truncated Polθ protein (Polθ-Hel containing the helicase domain (67-894), ATP and a DNA single strand Oligo (5′-CTGTCCTGCATGATG-3′) in the Polθ assay buffer (20 mM Tis-HCl (pH 8.8), MgCl2 5 mM, tween20 0.01%, NP40 0.01%, BSA 0.01%, DTT 1 mM). 2 μL of assay buffer containing Pole-Hel protein (0.5 nM) and DNA substrate (500 nM) was transferred into assay ready plates, containing 0.04 μL of compounds diluted in DMSO. After a 30 minutes incubation at 23° C. in the dark, the reaction was triggered by adding 2 μL of ATP (60 μM), in assay buffer. After 60 minutes at 23° C., 4 μl of ADP-Glo™ Reagent (Glo 1) was added followed by 40 minutes of incubation, then 8 μl of ADP-Glom kinase Detection Reagent (Glo 2) followed by 60 minutes of incubation at 23° C. Luminescence was then measured using Tecan F200 infinite plate reader. Raw data were analysed using GeneData to generate IC50 values.
The Polθ ATPase assay described in Biological Assay 1 above was used to evaluate inhibitors of Polθ ATPase activity for the compounds described in the Experimental Part B above, in vitro.
`COc1cnc(Cl)cc1-c1cc(C)ncc1C(=O)Nc1nc2ccc(N)cc2s1` [Example 36A, N-(6-amino-1,3-benzothiazol-2-yl)-4-(2-chloro-5-methoxy-4-pyridyl)-6-methyl-pyridine-3-carboxamide] showed an IC50 of 100 to 1000 nM.
For `COc1cnc(Cl)cc1-c1cc(C)ncc1C(=O)Nc1nc2ccc(N3CCCCC3=O)cc2s1` [Example 36B, 2′-chloro-5′-methoxy-6-methyl-N-[6-(2-oxopiperidin-1-yl)-1,3-benzothiazol-2-yl]-[4,4′-bipyridine]-3-carboxamide], the IC50 was < 100 nM.
For `COc1cnc(Cl)cc1-c1cc(C)ncc1C(=O)Nc1nc2ccc(C3=CCCOC3)nc2s1` [Example 37, 2′-chloro-N-[5-(5,6-dihydro-2H-pyran-3-yl)-[1,3]thiazolo[5,4-b]pyridin-2-yl]-5′-methoxy-6-methyl-[4,4′-bipyridine]-3-carboxamide], the IC50 was < 100 nM.
With `COc1cnc(Cl)cc1-c1cc(C)ncc1C(=O)Nc1nc2ccc(-c3ccc(Cl)cn3)cc2s1` [Example 38, 2′-chloro-N-[6-(5-chloropyridin-2-yl)-1,3-benzothiazol-2-yl]-5′-methoxy-6-methyl-[4,4′-bipyridine]-3-carboxamide] the IC50 was < 100 nM.
`COc1ccccc1-c1cnccc1C(=O)Nc1nc2ccc(-c3ccc(Cl)cn3)cc2s1` [Example 39, N-[6-(5-chloropyridin-2-yl)-1,3-benzothiazol-2-yl]-3-(2-methoxyphenyl)pyridine-4-carboxamide] was tested, and the IC50 was 100 to 1000 nM.
Work on `COc1cnc(Cl)cc1-c1cc(C)ncc1C(=O)Nc1nc2ccc(C3(O)CCOC3)cc2s1` (stereo not shown) [Example 40, 2′-chloro-N-[6-(3-hydroxyoxolan-3-yl)-1,3-benzothiazol-2-yl]-5′-methoxy-6-methyl-[4,4′-bipyridine]-3-carboxamide] yielded an IC50 of 100 to 1000 nM.
For `COc1cnc(Cl)cc1-c1cc(C)ncc1C(=O)Nc1nc2ccc(NS(C)(=O)=O)cc2s1` [Example 41, 2′-chloro-N-(6-methanesulfonamido-1,3-benzothiazol-2-yl)-5′-methoxy-6-methyl-[4,4′-bipyridine]-3-carboxamide], the IC50 was < 100 nM.
For `COc1cnc(Cl)cc1-c1cc(C)ncc1C(=O)Nc1nc2cncnc2s1` [Example 42, 2′-chloro-5′-methoxy-6-methyl-N-{[1,3]thiazolo[5,4-d]pyrimidin-2-yl}-[4,4′-bipyridine]-3-carboxamide], the IC50 was < 100 nM.
For `COc1cnc(Cl)cc1-c1cc(C)ncc1C(=O)Nc1nc2ccc(SC)cc2s1` [Example 43, 2′-chloro-5′-methoxy-6-methyl-N-[6-(methylsulfanyl)-1,3-benzothiazol-2-yl]-[4,4′-bipyridine]-3-carboxamide], the IC50 was < 100 nM.
With `COc1cnc(Cl)cc1-c1cc(C)ncc1C(=O)Nc1nc2ccncc2s1` [Example 44, 2′-chloro-5′-methoxy-6-methyl-N-{[1,3]thiazolo[5,4-c]pyridin-2-yl}-[4,4′-bipyridine]-3-carboxamide] the IC50 was < 100 nM.
With `COc1cnc(Cl)cc1-c1cc(C)ncc1C(=O)Nc1nc2cnc(N3CCN(C(C)=O)CC3)nc2s1` [Example 45, N-[5-(4-acetylpiperazin-1-yl)-[1,3]thiazolo[5,4-d]pyrimidin-2-yl]-2′-chloro-5′-methoxy-6-methyl-[4,4′-bipyridine]-3-carboxamide] the IC50 was < 100 nM.
`COc1cnc(Cl)cc1-c1cc(C)ncc1C(=O)Nc1nc2cnc(NCCO)nc2s1` [Example 46, 2′-chloro-N-{5-[(2-hydroxyethyl)amino]-[1,3]thiazolo[5,4-d]pyrimidin-2-yl}-5′-methoxy-6-methyl-[4,4′-bipyridine]-3-carboxamide] was tested, and the IC50 was < 100 nM.
In the case of `COc1cnc(Cl)cc1-c1cc(C)ncc1C(=O)Nc1nc2cnc(N3CC(OC)C3)nc2s1` [Example 47, 2′-chloro-5′-methoxy-N-[5-(3-methoxyazetidin-1-yl)-[1,3]thiazolo[5,4-d]pyrimidin-2-yl]-6-methyl-[4,4′-bipyridine]-3-carboxamide], the IC50 is reported as < 100 nM.
